We go through six compounds from US20020068367A1, “Linker and method for solid phase combinatorial synthesis” (priority 2000, published 2002).

One test concerns the target T1, fluorescein-streptavidin (Streptomyces avidinii, UniProt P22629).
T1 construct: purchased Calbiochem-Novabiochem Corp., La Jolla, Calif; 189734
Briefly: Standard protein-binding assay: fluorescein-streptavidin binding to linker on streptavidin-coated 96-well plates. The note with it: for Fluorescence emission detected (qualitative): linker and fluorescein-labeled protein present. The source says:
(§1) Referring to the drawings, and particularly to FIG. 1, generic reactions illustrating two variations of the screening system of the present invention are shown. FIGS. 1a-1d illustrate the generic System 1 reaction wherein a compound comprised of a tether connecting biotin with a chemical compound containing a nitrophenyl group is applied to a streptavidin coated solid phase. The amount of fluorescein-protein complex (c), where the exemplary protein is fluorescein-anti-DNP antibody, bound to the biotin-tether-nitrophenyl complex is characterized by detecting the magnitude of fluorescence emission in each individual well at the completion of the reaction. Similarly, FIG. 1e-1h illustrates the generic System 2 reaction wherein a tether connects 2 biotin groups together and streptavidin is coated on the solid phase. As in the System 1 reaction, the amount of fluorescein-protein complex (g), where the exemplary protein is fluorescein-streptavidin, bound to the biotin-tether-biotin complex is characterized through the detection of fluorescence emissions in each individual well at the completion of the reaction.
In the quantification of the interaction between fluoresceinated-proteins and linkers is characterized by detecting the magnitude of fluorescence emissions in each individual well at the completion of standard protein-binding assay procedures.
(§2) A standard protein-binding assay comprises a multi-step process in which strepeavidin pre-treated 96-well plates are exposed to a solution containing linker followed by exposure to a solution containing fluorescein-labeled protein. The 96-well plates are coated with a commercially available streptavidin solution (cat #BPS00100; Xenopore Corp., Hawthorne, N.J.) and then pre-incubated with 300 μl PBS buffer for 10 minutes at room temperature. To complete the pre-incubation process, the PBS buffer is discarded and the plates are further washed five times with water. Once the plate is sufficiently washed, add to the wells 100 μl of pre-mixed binding buffer containing the desired linker, the preparation of which is as described above. After addition of the linker solution, the plate is incubated at 37° C. for one hour. Upon completion of incubation, the linker solution is discarded and the plate is washed with five changes of water. For the fifth step of the assay process, 100 μl of a premixed reaction solution containing 1 M Tris, 0.5 M NaCl and the fluorescein-labeled proteins are added to selected wells of the plate with bound linker. The fluorescein conjugated proteins, anti-dinitrophenyl antibody (rabbit IgG fraction, cat #A-6423) (anti-DNP) and streptavidin (cat #189734) are commercially available from Molecular Probes, Inc., Eugene, Oreg. and Calbiochem Inc., San Diego, Calif. Upon addition of the protein solutions, the plate is further incubated at 37° C. for one hour. Following the incubation period, the reacting solution in each well is discarded and the wells are washed with five changes of 1 M Tris or 30 changes of water. After this final washing step, 250 μl of elution buffer containing 0.5 mM NaOH, methanol and 20 mM EDTA is added to each well and the plate is read using a Spectra MAX Gemini fluorescein plate reader (Molecular Devices Corp., Sunnyvale, Calif.).
Using the standard protein-binding assay described above, linkers 1-7 are evaluated for their ability to bind fluorescein-streptavidin or fluorescein-anti-DNP. The detection of fluorescence emission beyond that of the control would indicate that the fluorescein labeled protein has bound to the corresponding linker. Lack of fluorescence emission would indicate that either the linker or the fluorescein-bound proteins are absent, or that an improper linker was used. This may be interpreted as meaning that the protein of interest, in this exemplary example streptavidin or anti-DNP, “recognizes” the particular library compound being used in the experiment. […]

For test [1], the system named is fluorescein-anti-DNP antibody (rabbit IgG fraction). Briefly: Standard protein-binding assay: fluorescein-anti-DNP binding to linker on streptavidin-coated 96-well plates.
From the text: as §1, §2
Using the standard protein-binding assay described above, linkers 1-7 are evaluated for their ability to bind fluorescein-streptavidin or fluorescein-anti-DNP. The detection of fluorescence emission beyond that of the control would indicate that the fluorescein labeled protein has bound to the corresponding linker. Lack of fluorescence emission would indicate that either the linker or the fluorescein-bound proteins are absent, or that an improper linker was used. This may be interpreted as meaning that the protein of interest, in this exemplary example streptavidin or anti-DNP, “recognizes” the particular library compound being used in the experiment. It is this “recognition” that constitutes the use of these plate libraries as “affinity probes”. While preliminary test results are reported for all of the tested linkers, particular emphasis will be on the data derived from testing of linkers 3 and 5. […]

T1 sequence (P22629 25-183): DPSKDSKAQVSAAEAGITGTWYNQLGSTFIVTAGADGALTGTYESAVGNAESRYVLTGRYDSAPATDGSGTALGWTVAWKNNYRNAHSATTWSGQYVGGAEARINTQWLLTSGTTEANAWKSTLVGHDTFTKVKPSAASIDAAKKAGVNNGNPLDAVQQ

`O=C(CCCCC1SCC2NC(=O)NC21)NCCCCCC(=O)NCCCOCCOCCOCCCNC(=O)COCC(=O)NCCCOCCOCCOCCCNC(=O)CCCCC1SCC2NC(=O)NC21` (stereo not shown) [Linker 4]: the Fluorescence emission at fluorescein-streptavidin (Linker 4 5 nmol, no streptavidin-fluorescein (control)) stood at 122; at fluorescein-streptavidin (Linker 4 5 nmol, streptavidin-fluorescein 100 pmol) it was 218. For the same compound, the “Fluorescence emission detected (qualitative)” value (“Fluorescence emission detected” for short) on fluorescein-streptavidin is recorded as “Fluorescence emissions were detected”.
On to `O=C(CCCCCNC(=O)CCCCC1SCC2NC(=O)NC21)NCCCCCNC(=O)CCCCCNC(=O)CCCCC1SCC2NC(=O)NC21` (stereo not shown) [Linker 2], for which the Fluorescence emission is on record as 583 at fluorescein-streptavidin (Linker 2 62.5 nmol, no streptavidin-fluorescein (control)) and 652 on fluorescein-streptavidin (Linker 2 62.5 nmol, streptavidin-fluorescein 73.5 pmol). Also, the “Fluorescence emission detected” value at fluorescein-streptavidin is reported as “Fluorescence emissions were detected”.
On to `O=C(CCCCCNc1ccc([N+](=O)[O-])cc1[N+](=O)[O-])NCCCOCCOCCOCCCNC(=O)COCC(=O)NCCCOCCOCCOCCCNC(=O)CCCCC1SCC2NC(=O)NC21` (stereo not shown) [Linker 7], for which the Fluorescence emission at fluorescein-streptavidin (Linker 7 5 nmol, no streptavidin-fluorescein (control)) is 112; on fluorescein-streptavidin (Linker 7 5 nmol, streptavidin-fluorescein 266 pmol), 208. Moreover, the “Fluorescence emission detected” value at fluorescein-streptavidin was “Fluorescence emissions were detected”.
`NCCCCCNC(=O)CCCC[C@@H]1SC[C@@H]2NC(=O)N[C@@H]21` [Linker B-1596, reference compound]: the “Fluorescence emission” value at fluorescein-streptavidin (pre-linker B-1596 50 nmol replacing linker 3, streptavidin-fluorescein 100 pmol) is “remained at a level similar to reactions where no linker was used”.
With `O=C(CCCCC1SCC2NC(=O)NC21)NCCCOCCOCCOCCCNC(=O)CCCCC1SCC2NC(=O)NC21` (stereo not shown) [Linker 1], the “Fluorescence emission detected” value at fluorescein-streptavidin is “No fluorescence emission was detected”.
As for `O=C(CCCCCNC(=O)CCCCC1SCC2NC(=O)NC21)NCCCCCNC(=O)CCCCCNc1ccc([N+](=O)[O-])cc1[N+](=O)[O-]` (stereo not shown) [Linker 5], the “Increase in fluorescence emission” value in test [1] (100-fold increase in linker 5 concentration) was 2.5 fold; in test [1] (linker 5, 10-fold increase in fluorescein-anti-DNP concentration (5.3 to 53 pmol)) it was “approximately 3 fold”. In addition, the Fluorescence emission stood at 197.62 in test [1] ([5] 50.0 nmol, fluorescein-anti-DNP 266 pmol); 176.22 in test [1] ([5] 100.0 nmol, fluorescein-anti-DNP 266 pmol); 172.66 in test [1] ([5] 200.0 nmol, fluorescein-anti-DNP 266 pmol); 180.98 in test [1] ([5] 300.0 nmol, fluorescein-anti-DNP 266 pmol); 225.98 in test [1] ([5] 400.0 nmol, fluorescein-anti-DNP 266 pmol); 224.27 in test [1] ([5] 500.0 nmol, fluorescein-anti-DNP 266 pmol). Besides, the Fluorescence emission in test [1] ([5] 1000.0 nmol, fluorescein-anti-DNP 266 pmol) is 211.7; in test [1] ([5] 2000.0 nmol, fluorescein-anti-DNP 266 pmol) it was 351.7; in test [1] ([5] 3000.0 nmol, fluorescein-anti-DNP 266 pmol), 369.58; in test [1] ([5] 4000.0 nmol, fluorescein-anti-DNP 266 pmol) it was 516.83; in test [1] ([5] 5000.0 nmol, fluorescein-anti-DNP 266 pmol) it was 543.9; in test [1] (linker 5 50 nmol, [α-DNP] 0 pmol (linker only)), 76.392. Also, the Fluorescence emission is listed as 101.45 in test [1] (linker 5 50 nmol, [α-DNP] 2.6 pmol); 109.82 in test [1] (linker 5 50 nmol, [α-DNP] 5.3 pmol); 129.19 in test [1] (linker 5 50 nmol, [α-DNP] 10.0 pmol); 137.9 in test [1] (linker 5 50 nmol, [α-DNP] 16.0 pmol); 160.48 in test [1] (linker 5 50 nmol, [α-DNP] 21.0 pmol); 204.54 in test [1] (linker 5 50 nmol, [α-DNP] 27.0 pmol). Further, the Fluorescence emission in test [1] (linker 5 50 nmol, [α-DNP] 53.0 pmol) stood at 306.3; in test [1] (linker 5 50 nmol, [α-DNP] 106.0 pmol), 473.57; in test [1] (linker 5 50 nmol, [α-DNP] 159.0 pmol), 615.29; in test [1] (linker 5 50 nmol, [α-DNP] 212.0 pmol), 599.48; in test [1] (linker 5 50 nmol, [α-DNP] 266.0 pmol) it was 561.46. Also, the “Effect on binding capacity of fluorescein-anti-DNP” value in test [1] (generic System 1) is reported as “significantly enhances the binding capacity”.
